#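 Interpolation was linear, between the two tested concentrations surrounding the appropriate level; five concentrations were tested over 48 hours in 96-well plates. The concentration for 50% growth inhibition is given as GI50. TGI marks complete inhibition of growth.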
# Legend:
# Assay in all cases: inhibition of tumour cell growth, NCI panel, 48 h
# [1] = system: A498 renal
# [2] = system: SK-MEL-2 melanoma
# [3] = system: IGROV1 ovarian
# [4] = system: M14 melanoma
# [5] = system: NCI-H460 lung
# [6] = system: UACC-257 melanoma
# [7] = system: OVCAR-3 ovarian
# [8] = system: HT29 colon
# [9] = system: NCI-H23 lung
# [10] = system: UACC-62 melanoma
SMILES,GI50 [1],TGI [1],GI50 [2],TGI [2],GI50 [3],TGI [3],GI50 [4],TGI [4],GI50 [5],TGI [5],GI50 [6],TGI [6],GI50 [7],TGI [7],GI50 [8],TGI [8],GI50 [9],TGI [9],GI50 [10],TGI [10]
CS(=O)(=O)Nc1cc(-c2ccc3ncnc(Nc4ccc5c(cnn5Cc5ccc(F)cc5)c4)c3c2)cnc1Cl,1.33 µM,3.4 µM,1.09 µM,3.28 µM,0.314 µM,1.71 µM,2.33 µM,17 µM,2.8 µM,13.3 µM,2.17 µM,17.9 µM,1.1 µM,3.3 µM,1.92 µM,12.9 µM,1.43 µM,5.43 µM,0.607 µM,2.98 µM
CCO[C@@H]1C2C=CC(C2)[C@H]1[N+](=O)[O-] (stereo not given in full),–,> 100 µM,–,> 100 µM,–,> 100 µM,–,> 100 µM,–,> 100 µM,–,> 100 µM,–,> 100 µM,–,> 100 µM,–,> 100 µM,–,> 100 µM
COC(=O)C(Cc1nc2ccc(Cl)cc2[nH]c1=O)C(=O)C(=O)Nc1ccccc1[N+](=O)[O-] (stereo not given),–,> 100 µM,–,> 100 µM,–,> 100 µM,–,> 100 µM,–,> 100 µM,–,> 100 µM,–,> 100 µM,–,> 100 µM,–,> 100 µM,–,> 100 µM
C=C[C@]1(C)C=C2C(=O)[C@@]3(O)OC[C@@]4(CCCC(C)(C)C43O)C2(O)C(O)C1 (stereo not given in full),12.8 µM,25.6 µM,12.4 µM,27.4 µM,1.55 µM,6.36 µM,1.55 µM,3.01 µM,12.5 µM,28.2 µM,2.06 µM,4.21 µM,2.52 µM,5.9 µM,1.46 µM,> 21.5 µM,2.71 µM,8.51 µM,7.77 µM,21.5 µM
Cc1cc(N2CCCC2)nc(N(CCCNc2ccnc3cc(Cl)ccc23)Cc2ccc3c(c2)OCO3)n1,2.44 µM,7.5 µM,1.84 µM,4 µM,1.38 µM,4.33 µM,1.37 µM,3.04 µM,1.29 µM,4.34 µM,1.84 µM,3.47 µM,1.06 µM,2.87 µM,0.541 µM,2.83 µM,2.36 µM,15.5 µM,1.78 µM,3.38 µM
Nc1nc(OCc2ccccc2)nc2[nH]ncc12,11.2 µM,26.4 µM,20.3 µM,47.9 µM,32.5 µM,> 100 µM,36.6 µM,> 100 µM,24 µM,88.8 µM,19 µM,37.1 µM,11.5 µM,25.2 µM,28.6 µM,77.6 µM,15.7 µM,32.7 µM,14.4 µM,32.1 µM
CC1CC2(CC[C@@H]1O)OCCO2 (stereo not given in full),–,> 100 µM,–,> 100 µM,–,> 100 µM,–,> 100 µM,–,> 100 µM,–,> 100 µM,–,> 100 µM,–,> 100 µM,–,> 100 µM,–,> 100 µM
O=C(NN1C(=O)CSC1c1ccc(Cl)cc1)c1[nH]c2ccc(F)cc2c1-c1ccccc1 (stereo not given),2.98 µM,9.79 µM,9.61 µM,26.3 µM,3.89 µM,11.5 µM,2.5 µM,6.45 µM,2.81 µM,7.84 µM,10.5 µM,25.6 µM,1.85 µM,3.53 µM,3.09 µM,10.5 µM,2.26 µM,6.59 µM,5.38 µM,17.3 µM
Cn1cc(-c2ccc3c(c2)CCN3C(=O)Cc2cccc(C(F)(F)F)c2)c2c(N)ncnc21,0.453 µM,6.56 µM,4.62 µM,28.6 µM,3.47 µM,30.5 µM,1.7 µM,16.2 µM,3.85 µM,19.7 µM,5.37 µM,24.3 µM,7.1 µM,21.9 µM,3.61 µM,16.3 µM,4.43 µM,24.2 µM,2.72 µM,16.9 µM
O=C(O)CCC1CCc2cccc3occ1c23 (stereo not given),–,> 100 µM,–,> 100 µM,–,> 100 µM,–,> 100 µM,–,> 100 µM,–,> 100 µM,–,> 100 µM,–,> 100 µM,–,> 100 µM,–,> 100 µM
CC[CH2][Pb]([CH2]CC)([CH2]CC)[NH]S(=O)(=O)c1ccc(C)cc1,0.0215 µM,0.058 µM,0.0176 µM,0.0436 µM,0.0723 µM,0.19 µM,0.0616 µM,0.219 µM,0.137 µM,0.277 µM,0.0773 µM,0.245 µM,0.024 µM,0.0625 µM,0.0546 µM,0.112 µM,0.0178 µM,0.0375 µM,0.0272 µM,0.0995 µM
CCCCC[C@H]1C/C=C2/C(=O)C(Cl)=C[C@@H]2C/C=C\CCCC(=O)O[C@@H](CCCCC)C/C=C2/C(=O)C(Cl)=C[C@@H]2C/C=C\CCCC(=O)O1,0.465 µM,1.41 µM,0.362 µM,0.918 µM,0.342 µM,0.958 µM,0.39 µM,1.07 µM,0.405 µM,1.02 µM,0.366 µM,0.932 µM,0.268 µM,0.555 µM,0.46 µM,1.44 µM,0.34 µM,0.838 µM,0.297 µM,0.62 µM

# From PubChem BioAssay (NCI)
